# Results published in patent US10214519B2, “Phosphatidylinositol 3-kinase inhibitors” (Gilead Sciences, Inc., priority 2016, dated 2019).
# Molecular target: PI3Kβ (Homo sapiens (Human), UniProt P42338)
# Assay: PI3K isoform TR-FRET enzymatic assay (PI3Kβ)
# Format: biochemical
# Conditions: 2× Km ATP, 30 minutes at 25° C.
# Procedure, shortened: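 Heterodimeric recombinant PI3Kβ was incubated with compound 30 minutes at 25° C. Product was detected by TR-FRET competition with 10 nM labeled PIP3 for 35 nM Eu-GRP-1 PH domain after EDTA stop. Data were normalized to 1 μM wortmannin and DMSO, and IC50 was taken from a four-parameter fit.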
# Sequence of PI3Kβ (P42338 whole entry, canonical isoform): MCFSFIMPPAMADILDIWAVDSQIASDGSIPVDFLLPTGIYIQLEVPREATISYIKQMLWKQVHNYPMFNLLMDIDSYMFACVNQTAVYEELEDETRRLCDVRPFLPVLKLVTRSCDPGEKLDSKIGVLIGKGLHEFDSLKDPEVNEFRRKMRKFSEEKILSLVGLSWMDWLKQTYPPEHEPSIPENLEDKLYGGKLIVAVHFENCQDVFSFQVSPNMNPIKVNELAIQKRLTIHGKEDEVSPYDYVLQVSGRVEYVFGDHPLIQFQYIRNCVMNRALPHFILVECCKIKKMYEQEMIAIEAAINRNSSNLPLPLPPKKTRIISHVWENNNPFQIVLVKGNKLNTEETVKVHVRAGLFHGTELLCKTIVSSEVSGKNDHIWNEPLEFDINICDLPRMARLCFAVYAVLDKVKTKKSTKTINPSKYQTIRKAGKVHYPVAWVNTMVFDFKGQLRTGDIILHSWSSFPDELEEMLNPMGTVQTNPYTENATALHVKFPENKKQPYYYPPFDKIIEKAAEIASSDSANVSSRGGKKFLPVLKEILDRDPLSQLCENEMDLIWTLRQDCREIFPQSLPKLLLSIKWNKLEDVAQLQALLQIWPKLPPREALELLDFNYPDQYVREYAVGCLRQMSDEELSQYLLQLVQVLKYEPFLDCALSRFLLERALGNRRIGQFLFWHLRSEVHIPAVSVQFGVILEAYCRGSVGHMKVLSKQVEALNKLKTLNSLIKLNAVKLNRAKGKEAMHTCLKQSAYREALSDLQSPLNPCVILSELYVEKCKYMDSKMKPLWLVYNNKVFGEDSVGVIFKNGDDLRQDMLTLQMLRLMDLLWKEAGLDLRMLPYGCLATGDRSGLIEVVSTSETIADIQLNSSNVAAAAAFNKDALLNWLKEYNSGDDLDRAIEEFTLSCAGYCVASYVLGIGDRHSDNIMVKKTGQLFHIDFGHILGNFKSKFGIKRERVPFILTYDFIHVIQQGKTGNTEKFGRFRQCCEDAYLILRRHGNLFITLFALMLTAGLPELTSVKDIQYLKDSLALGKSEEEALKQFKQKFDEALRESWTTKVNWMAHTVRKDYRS
# Sequence of PI3Kβ (P27986 whole entry partner, canonical isoform): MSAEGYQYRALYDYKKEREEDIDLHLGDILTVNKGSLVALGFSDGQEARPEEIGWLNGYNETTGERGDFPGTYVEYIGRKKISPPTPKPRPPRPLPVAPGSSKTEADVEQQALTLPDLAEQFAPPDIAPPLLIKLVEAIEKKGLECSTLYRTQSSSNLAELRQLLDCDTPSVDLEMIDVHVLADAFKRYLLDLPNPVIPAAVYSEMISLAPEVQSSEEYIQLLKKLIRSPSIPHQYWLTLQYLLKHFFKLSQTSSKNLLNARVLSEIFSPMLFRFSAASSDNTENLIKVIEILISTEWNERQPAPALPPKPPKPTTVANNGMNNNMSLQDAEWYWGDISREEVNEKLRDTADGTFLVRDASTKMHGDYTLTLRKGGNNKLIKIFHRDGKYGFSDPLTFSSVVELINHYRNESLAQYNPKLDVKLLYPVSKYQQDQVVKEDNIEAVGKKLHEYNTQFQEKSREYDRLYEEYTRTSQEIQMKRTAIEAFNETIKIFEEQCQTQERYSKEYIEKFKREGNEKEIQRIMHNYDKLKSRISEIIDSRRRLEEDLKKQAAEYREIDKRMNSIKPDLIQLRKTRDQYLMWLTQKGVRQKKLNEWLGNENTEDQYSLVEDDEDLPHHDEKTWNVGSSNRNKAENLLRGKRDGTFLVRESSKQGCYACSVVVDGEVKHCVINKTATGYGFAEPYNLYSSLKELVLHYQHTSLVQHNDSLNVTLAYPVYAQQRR
row,SMILES,IC50 [nM]
1,"Cc1nnc(-c2cc(N3CCOCC3)cc3c2nc(C)n3-c2ccnc3c(Cl)ccc(Cl)c23)[nH]1 [Example 151, 4-(1-(5,8-dichloroquinolin-4-yl)-2-methyl-4-(5-methyl-4H-1,2,4-triazol-3-yl)-1H-benzo[d]imidazol-6-yl)morpholine]",44
2,"Cc1nc2c(-c3cnn[nH]3)cc(N3CCOCC3)cc2n1-c1ccnc2c(F)ccc(F)c12 [Example 377, 4-(1-(5,8-difluoroquinolin-4-yl)-2-methyl-4-(1H-1,2,3-triazol-5-yl)-1H-benzo[d]imidazol-6-yl)morpholine]",35
3,"Clc1ncc(-c2cc(N3CCOCC3)cc3c2nc(C2COC2)n3-c2ccnc3c(Cl)cccc23)[nH]1 [Example 291, 4-[7-(2-chloro-1H-imidazol-5-yl)-3-(8-chloroquinolin-4-yl)-2-(oxetan-3-yl)benzimidazol-5-yl]morpholine]",27
4,"CCCc1nc2c(-c3cnc(C)[nH]3)cc(N3CCOCC3)cc2n1-c1ccnc2c(Cl)cccc12 [Example 212, 4-[3-(8-chloroquinolin-4-yl)-7-(2-methyl-1H-imidazol-5-yl)-2-propylbenzimidazol-5-yl]morpholine]",34
5,"Cc1nc2c(-c3nnc[nH]3)cc(N3CCOCC3)cc2n1-c1cc(C#N)nc2ccccc12 [Example 67, 4-[2-methyl-6-morpholin-4-yl-4-(4H-1,2,4-triazol-3-yl)benzimidazol-1-yl]quinoline-2-carbonitrile]",99
6,"Cc1cc(-n2c(C)nc3c(-c4nnc[nH]4)cc(N4CCOCC4)cc32)c2cccc(C(F)(F)F)c2n1 [Example 60, 4-[2-methyl-3-[2-methyl-8-(trifluoromethyl)quinolin-4-yl]-7-(4H-1,2,4-triazol-3-yl)benzimidazol-5-yl]morpholine]",30
7,"CCCc1nc2c(-c3cn[nH]c3)cc(N3CCOCC3)cc2n1-c1ccnc2c(F)ccc(F)c12 [Example 388, 4-(1-(5,8-difluoroquinolin-4-yl)-2-propyl-4-(1H-pyrazol-4-yl)-1H-benzo[d]imidazol-6-yl)morpholine]",1100
8,"Cc1nc2c(-c3cnc(Cl)[nH]3)cc(N3CCOCC3)cc2n1-c1ccnc2c(F)ccc(F)c12 (atropisomer, axis not shown) [Compound 373, 4-(4-(2-chloro-1H-imidazol-5-yl)-1-(5,8-difluoroquinolin-4-yl)-2-methyl-1H-benzo[d]imidazol-6-yl)morpholine]",1000
9,"CCc1nc2c(-c3nnc(Cl)[nH]3)cc(N3CCOCC3)cc2n1-c1ccnc2c(F)ccc(F)c12 [Example 179, 4-[7-(5-chloro-4H-1,2,4-triazol-3-yl)-3-(5,8-difluoroquinolin-4-yl)-2-ethylbenzimidazol-5-yl]morpholine]",44
10,"c1ccc2c(-n3c(C4CC4)nc4c(-c5nnc[nH]5)cc(N5CCOCC5)cc43)ccnc2c1 [Example 17, 4-(2-cyclopropyl-1-(quinolin-4-yl)-4-(4H-1,2,4-triazol-3-yl)-1H-benzo[d]imidazol-6-yl)morpholine]",60
11,"CCCc1nc2c(-c3ncco3)cc(N3CCOCC3)cc2n1-c1ccnc2c(F)ccc(F)c12 (atropisomer, axis not shown) [Compound 356, 4-[3-(5,8-difluoroquinolin-4-yl)-7-(1,3-oxazol-2-yl)-2-propylbenzimidazol-5-yl]morpholine]",> 10000
12,"Cc1cc(-n2c(C)nc3c(-c4nnc[nH]4)cc(N4CCOCC4)cc32)c2ccc(F)cc2n1 [Example 63, 4-[3-(7-fluoro-2-methylquinolin-4-yl)-2-methyl-7-(4H-1,2,4-triazol-3-yl)benzimidazol-5-yl]morpholine]",28
13,"CCc1nc2c(-c3nnc(C)[nH]3)cc(N3CCOCC3)cc2n1-c1ccnc2c(F)ccc(F)c12 [Example 152, 4-(1-(5,8-difluoroquinolin-4-yl)-2-ethyl-4-(5-methyl-4H-1,2,4-triazol-3-yl)-1H-benzo[d]imidazol-6-yl)morpholine]",59
14,"Cc1nc2c(-c3cnco3)cc(N3CCOCC3)cc2n1-c1ccnc2c(Cl)cccc12 [Example 277, 4-[3-(8-chloroquinolin-4-yl)-2-methyl-7-(1,3-oxazol-5-yl)benzimidazol-5-yl]morpholine]",620
15,"Cc1cnc(-c2cc(N3CCOCC3)cc3c2nc(C)n3-c2ccnc3c(Cl)cccc23)s1 [Example 215, 4-[3-(8-chloroquinolin-4-yl)-2-methyl-7-(5-methyl-1,3-thiazol-2-yl)benzimidazol-5-yl]morpholine]",630
16,"Cc1nc2c(-c3nnc[nH]3)cc(N3CCOCC3)cc2n1-c1c(Cl)cnc2c(F)cccc12 [Example 27, 4-[3-(3-chloro-8-fluoroquinolin-4-yl)-2-methyl-7-(4H-1,2,4-triazol-3-yl)benzimidazol-5-yl]morpholine]",56

# More lines, in order of falling IC50, values ahead:
row,IC50 [nM],SMILES
1,27,"Fc1ccc(F)c2c(-n3c(C4CC4)nc4c(-c5nccs5)cc(N5CCOCC5)cc43)ccnc12 [Example 241, 4-[2-cyclopropyl-3-(5,8-difluoroquinolin-4-yl)-7-(1,3-thiazol-2-yl)benzimidazol-5-yl]morpholine]"
2,27,"Clc1cccc2c(-n3c(-c4cn[nH]c4)nc4c(-c5nnc[nH]5)cc(N5CCOCC5)cc43)ccnc12 [Example 120, 4-[3-(8-chloroquinolin-4-yl)-2-(1H-pyrazol-4-yl)-7-(4H-1,2,4-triazol-3-yl)benzimidazol-5-yl]morpholine]"
3,23,Cc1nc2c(-c3nnn[nH]3)cc(N3CCOCC3)cc2n1-c1ccnc2c(Cl)cccc12 [Example 161]
4,21,"Cc1nc2c(-c3nnc(N)[nH]3)cc(N3CCOCC3)cc2n1-c1ccnc2c(F)ccc(F)c12 [Example 393, 5-(1-(5,8-difluoroquinolin-4-yl)-2-methyl-6-morpholino-1H-benzo[d]imidazol-4-yl)-4H-1,2,4-triazol-3-amine]"
5,18,"CCCc1nc2c(-c3nnc[nH]3)cc(N3CCOCC3)cc2n1-c1ccnc2c(F)c(F)ccc12 [Example 49, 4-(1-(7,8-difluoroquinolin-4-yl)-2-propyl-4-(4H-1,2,4-triazol-3-yl)-1H-benzo[d]imidazol-6-yl)morpholine]"
6,18,"Fc1cccc2c(-n3c(CC4CC4)nc4c(-c5ncco5)cc(N5CCOCC5)cc43)ccnc12 [Example 225, 4-[2-(cyclopropylmethyl)-3-(8-fluoroquinolin-4-yl)-7-(1,3-oxazol-2-yl)benzimidazol-5-yl]morpholine]"
7,18,"Cc1nnc(-c2cc(N3CCOCC3)cc3c2nc(C2CC2)n3-c2ccnc3c(Cl)cccc23)[nH]1 [Example 47, 4-(1-(8-chloroquinolin-4-yl)-2-cyclopropyl-4-(5-methyl-4H-1,2,4-triazol-3-yl)-1H-benzo[d]imidazol-6-yl)morpholine]"
8,17,"Cc1nc2c(-c3nnc[nH]3)cc(N3CCOCC3)cc2n1-c1ccnc2ccccc12 [Example 106, 4-[2-methyl-3-quinolin-4-yl-7-(4H-1,2,4-triazol-3-yl)benzimidazol-5-yl]morpholine]"
9,17,"CCc1nnc(-c2cc(N3CCOCC3)cc3c2nc(C)n3-c2ccnc3c(Cl)cccc23)[nH]1 [Example 137, 4-[3-(8-chloroquinolin-4-yl)-7-(5-ethyl-4H-1,2,4-triazol-3-yl)-2-methylbenzimidazol-5-yl]morpholine]"
10,15,"Clc1cccc2c(-n3c(-c4ccn[nH]4)nc4c(-c5nnc[nH]5)cc(N5CCOCC5)cc43)ccnc12 [Example 117, 4-[3-(8-chloroquinolin-4-yl)-2-(1H-pyrazol-5-yl)-7-(4H-1,2,4-triazol-3-yl)benzimidazol-5-yl]morpholine]"
11,13,"CCc1nc2c(-c3ncc[nH]3)cc(N3CCOCC3)cc2n1-c1ccnc2c(F)ccc(F)c12 (atropisomer, axis not shown) [Compound 370, 4-(1-(5,8-difluoroquinolin-4-yl)-2-ethyl-4-(1H-imidazol-2-yl)-1H-benzo[d]imidazol-6-yl)morpholine]"
12,10,"Cc1nc2c(-c3ncc[nH]3)cc(N3CCOCC3)cc2n1-c1ccnc2c(Cl)cccc12 [Example 175, 4-[3-(8-chloroquinolin-4-yl)-7-(1H-imidazol-2-yl)-2-methylbenzimidazol-5-yl]morpholine]"
13,9,"Cc1nc2c(-c3nnc[nH]3)cc(N3CCOCC3)cc2n1-c1cc(N2CCNCC2)nc2ccccc12 [Example 168, 4-(2-methyl-1-(2-(piperazin-1-yl)quinolin-4-yl)-4-(4H-1,2,4-triazol-3-yl)-1H-benzo[d]imidazol-6-yl)morpholine 2,2,2-trifluoroacetate]"
14,9,"Cc1nc2c(-c3ncco3)cc(N3CCOCC3)cc2n1-c1ccnc2c(F)cccc12 [Example 200, 4-(1-(8-fluoroquinolin-4-yl)-2-methyl-4-(oxazol-2-yl)-1H-benzo[d]imidazol-6-yl)morpholine]"
15,9,"Cc1ccc(F)c2c(-n3c(C)nc4c(-c5nnc[nH]5)cc(N5CCOCC5)cc43)ccnc12 [Example 124, 4-[3-(5-fluoro-8-methylquinolin-4-yl)-2-methyl-7-(4H-1,2,4-triazol-3-yl)benzimidazol-5-yl]morpholine]"
16,7,"Clc1cccc2c(-n3c(CC4CC4)nc4c(-c5ncco5)cc(N5CCOCC5)cc43)ccnc12 [Example 220, 4-[3-(8-chloroquinolin-4-yl)-2-(cyclopropylmethyl)-7-(1,3-oxazol-2-yl)benzimidazol-5-yl]morpholine]"
17,6,"Fc1ccc(Cl)c2nccc(-n3c(C4CC4)nc4c(-c5ncco5)cc(N5CCOCC5)cc43)c12 [Example 242, 4-[3-(8-chloro-5-fluoroquinolin-4-yl)-2-cyclopropyl-7-(1,3-oxazol-2-yl)benzimidazol-5-yl]morpholine]"
18,6,"Cc1nc2c(-c3cnc(Cl)[nH]3)cc(N3CCOCC3)cc2n1-c1ccnc2c(F)ccc(F)c12 (atropisomer, axis not shown) [Compound 372, 4-(4-(2-chloro-1H-imidazol-5-yl)-1-(5,8-difluoroquinolin-4-yl)-2-methyl-1H-benzo[d]imidazol-6-yl)morpholine]"
